From ChEMBL document CHEMBL1143045, “Tricyclic isoxazolines: identification of R226161 as a potential new antidepressant that combines potent serotonin reuptake inhibition and alpha2-adrenoceptor antagonism” (Bioorg Med Chem, 2007) come the findings set out here.

What is called pKi is the negative decadic logarithm of the Ki, by convention in mol/L. High values mean a small Ki, low ones a large Ki. What is called ED50 is the dose that gives a 50% effect, or the effect in half of the subjects.

pKi: −log10 of the molar value.

For assay [1], the target named is T1, Alpha-2A adrenergic receptor (Homo sapiens, UniProt P08913).
T1 sequence (P08913 whole entry): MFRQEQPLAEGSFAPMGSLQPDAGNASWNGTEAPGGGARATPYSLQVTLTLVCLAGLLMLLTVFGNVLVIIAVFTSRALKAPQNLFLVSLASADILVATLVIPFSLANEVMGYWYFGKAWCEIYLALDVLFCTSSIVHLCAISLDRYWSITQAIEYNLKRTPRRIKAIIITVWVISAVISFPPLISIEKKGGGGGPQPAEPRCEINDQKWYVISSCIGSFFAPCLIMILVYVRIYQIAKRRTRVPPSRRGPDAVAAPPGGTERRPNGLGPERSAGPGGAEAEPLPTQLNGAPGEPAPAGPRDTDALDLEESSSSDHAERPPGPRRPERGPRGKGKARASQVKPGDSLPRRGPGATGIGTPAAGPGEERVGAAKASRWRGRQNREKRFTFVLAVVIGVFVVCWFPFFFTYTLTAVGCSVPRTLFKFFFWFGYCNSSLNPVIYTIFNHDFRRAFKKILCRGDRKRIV
The assay is described as follows: Displacement of [3H]rawolscine from human cloned adrenergic alpha2A receptor transfected in CHO cells. It counts as cell-based.

The target of assay [2] is T2, Alpha-2B adrenergic receptor (Homo sapiens, UniProt P18089).
T2 sequence (P18089 whole entry): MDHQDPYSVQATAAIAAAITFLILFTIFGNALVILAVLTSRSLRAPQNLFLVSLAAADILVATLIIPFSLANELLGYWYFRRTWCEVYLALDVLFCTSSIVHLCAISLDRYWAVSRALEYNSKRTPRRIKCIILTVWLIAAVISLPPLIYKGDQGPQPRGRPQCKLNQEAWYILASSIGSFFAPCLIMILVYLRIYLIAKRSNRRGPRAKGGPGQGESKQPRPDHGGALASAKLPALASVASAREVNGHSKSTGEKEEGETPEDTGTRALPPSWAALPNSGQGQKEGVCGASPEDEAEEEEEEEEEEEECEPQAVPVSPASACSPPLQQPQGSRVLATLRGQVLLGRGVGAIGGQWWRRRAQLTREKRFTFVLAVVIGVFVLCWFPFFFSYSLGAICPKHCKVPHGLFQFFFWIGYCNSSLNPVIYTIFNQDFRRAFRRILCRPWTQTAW
The assay is described as follows: Displacement of [3H]rawolscine from human cloned adrenergic alpha-2B receptor transfected in CHO cells. It is filed as cell-based. A general note: Loss of bound radioactivity is the signal in a displacement assay; it reports binding, not function.

Assay [3] addresses T3, Alpha-2C adrenergic receptor (Homo sapiens, UniProt P18825).
T3 sequence (P18825 whole entry): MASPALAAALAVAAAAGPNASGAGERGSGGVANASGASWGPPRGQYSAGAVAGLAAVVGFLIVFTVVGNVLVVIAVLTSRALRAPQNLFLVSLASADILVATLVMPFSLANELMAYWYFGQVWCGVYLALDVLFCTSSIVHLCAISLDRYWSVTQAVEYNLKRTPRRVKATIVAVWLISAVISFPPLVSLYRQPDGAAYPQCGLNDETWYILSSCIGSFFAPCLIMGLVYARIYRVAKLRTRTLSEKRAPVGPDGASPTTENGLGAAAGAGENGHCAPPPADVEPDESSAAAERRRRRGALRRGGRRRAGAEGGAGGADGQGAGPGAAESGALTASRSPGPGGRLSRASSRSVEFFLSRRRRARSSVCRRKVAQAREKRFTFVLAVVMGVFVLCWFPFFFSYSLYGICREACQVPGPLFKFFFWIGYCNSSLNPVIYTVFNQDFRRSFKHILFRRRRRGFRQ
Put plainly: Displacement of [3H]rawolscine from human cloned adrenergic Alpha-2C receptor transfected in CHO cells. It is filed as cell-based.

Assay [4] has as its target Sodium-dependent serotonin transporter (Homo sapiens, UniProt P31645). The assay is described as follows: Displacement of [3H]paroxetine from human cloned 5HTT receptor transfected in CHO cells. It is filed as cell-based.
For assay [5], the target named is Adrenergic receptor alpha-2 (Rattus norvegicus) (UniProt P22086+P19328+P22909). The assay is described as follows: Reversal of medetomidine-induced loss of righting reflex in sc dosed Wistar rat after 1hr. It counts as functional, organism-based.
The target in assay [6] is Sodium-dependent serotonin transporter (Rattus norvegicus) (UniProt P31652). The assay is described as follows: Antagonism of p-chloroamphetamine-induced excitation in sc dosed Wistar rat after 1 hr. It is filed as functional, organism-based.
Sodium-dependent serotonin transporter (Rattus norvegicus), sequence (P31652 whole entry): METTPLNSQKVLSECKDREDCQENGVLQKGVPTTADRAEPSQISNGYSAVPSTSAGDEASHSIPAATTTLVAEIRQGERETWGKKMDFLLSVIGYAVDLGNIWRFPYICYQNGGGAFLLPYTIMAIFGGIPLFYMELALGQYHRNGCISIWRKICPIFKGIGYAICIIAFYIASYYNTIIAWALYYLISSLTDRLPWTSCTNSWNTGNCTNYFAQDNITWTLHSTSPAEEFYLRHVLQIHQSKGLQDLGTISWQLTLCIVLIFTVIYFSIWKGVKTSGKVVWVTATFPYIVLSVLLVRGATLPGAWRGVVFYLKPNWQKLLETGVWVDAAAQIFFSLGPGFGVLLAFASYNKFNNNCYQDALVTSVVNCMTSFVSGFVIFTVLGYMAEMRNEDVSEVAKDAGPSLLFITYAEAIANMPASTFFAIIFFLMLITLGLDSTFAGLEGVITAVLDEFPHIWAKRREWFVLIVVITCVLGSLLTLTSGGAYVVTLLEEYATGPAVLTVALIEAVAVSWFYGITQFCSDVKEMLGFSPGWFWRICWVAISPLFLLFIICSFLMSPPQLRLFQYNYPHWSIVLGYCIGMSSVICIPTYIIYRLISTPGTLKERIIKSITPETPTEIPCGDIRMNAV

Sodium-dependent serotonin transporter, sequence (P31645 whole entry): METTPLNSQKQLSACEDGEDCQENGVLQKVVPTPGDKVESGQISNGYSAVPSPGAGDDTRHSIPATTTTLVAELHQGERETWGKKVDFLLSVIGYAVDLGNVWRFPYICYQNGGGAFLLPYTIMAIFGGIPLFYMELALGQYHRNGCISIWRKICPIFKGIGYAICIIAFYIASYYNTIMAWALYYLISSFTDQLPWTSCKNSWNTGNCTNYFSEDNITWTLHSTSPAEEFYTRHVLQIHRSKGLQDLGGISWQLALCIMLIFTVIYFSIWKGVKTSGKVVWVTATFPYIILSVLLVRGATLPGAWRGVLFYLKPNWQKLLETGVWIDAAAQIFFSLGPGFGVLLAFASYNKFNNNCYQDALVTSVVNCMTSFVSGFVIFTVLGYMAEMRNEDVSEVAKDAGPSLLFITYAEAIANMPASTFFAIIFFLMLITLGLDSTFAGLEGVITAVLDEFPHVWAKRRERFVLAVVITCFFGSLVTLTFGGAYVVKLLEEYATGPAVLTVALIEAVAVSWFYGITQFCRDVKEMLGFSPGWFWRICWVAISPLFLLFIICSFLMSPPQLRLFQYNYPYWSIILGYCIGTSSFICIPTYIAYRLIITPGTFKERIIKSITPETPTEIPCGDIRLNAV

`COc1cc2c(cc1OC)C1=NOC(CN3CCN(C/C=C/c4ccc(F)cc4)CC3)C1CO2` (cis isomer): the pKi in assay [1] was 6.93; in assay [2], 6.79; in assay [3] it was 7.14; in assay [4], 7.85.
The like results for `COc1cc2c(cc1OC)C1=NOC(CN3CCN(C/C=C/c4ccc(F)cc4)CC3)C1CO2` (racemic) [listing 1 of 2 here] were, in that order, 8.05, 7.60, 7.64 and 8.25.
As for `COc1cc2c(cc1OC)C1=NO[C@@H](CN3CCN(C/C(C)=C/c4ccc(F)cc4)CC3)[C@@H]1CO2` (racemic) [listing 1 of 2 here], the pKi in assay [2] was 8.08.
For `COc1cc2c(cc1OC)C1=NOC(CN3CCN(C/C(C)=C/c4ccccc4)CC3)C1CN2` (racemic) [listing 1 of 2 here], the figures for the pKi in assay [2], in assay [3] and in assay [4] were 7.92, 10.00 and 8.05, respectively.
Regarding `COc1cc2c(cc1OC)C1=NOC(CN3CCN(C/C(C)=C/c4ccccc4)CC3)C1CN2` (racemic) [listing 2 of 2 here], the ED50 in assay [5] was 0.2 mg/kg; in assay [6], 2.2 mg/kg.
The matching figures for `COc1cc2c(cc1OC)C1=NOC(CN3CCN(C/C=C/c4ccc(F)cc4)CC3)C1CO2` (racemic) [listing 2 of 2 here]: 0.1 mg/kg and 4.7 mg/kg.
With `COc1cc2c(cc1OC)C1=NO[C@@H](CN3CCN(C/C(C)=C/c4ccc(F)cc4)CC3)[C@@H]1CO2` (racemic) [listing 2 of 2 here], the ED50 in assay [5] was 0.1 mg/kg.
As to `COc1cc2c(cc1OC)C1=NOC(CN3CCN(C/C=C/c4ccc(F)cc4)CC3)C1CO2` (single isomer, unassigned; (+)), the pKi was 7.27 in assay [1], 7.85 in assay [2], 8.35 in assay [3] and 8.68 in assay [4].
